In patent publication US20180298010A1, “PRMT5 INHIBITORS AND USES THEREOF” (Epizyme, Inc., priority 2012, published 2018):

biological target: T1, PRMT5/MEP50 (Homo sapiens, UniProt O14744); assay: PRMT5 Biochemical Assay (PRMT5/MEP50 enzyme assay on peptide substrate, 3H-SAM Flashplate)
T1 construct: Flag-PRMT5; 6His-MEP50
Method in brief: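 FLAG-PRMT5/His-MEP50 from Sf9 cells (4 nM) preincubated 30 min at 25 °C with compound in 20 mM Bicine pH 7.6, 1 mM TCEP, 1% DMSO. Reaction started with 75 nM 3H-SAM on 40 nM biotinylated H4 1-15 peptide, stopped with cold SAM. Bound 3H-peptide counted on streptavidin Flashplates, normalised to DMSO and 100 uM SAH controls.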

T1 sequence (O14744 with tags, fused parts or gaps): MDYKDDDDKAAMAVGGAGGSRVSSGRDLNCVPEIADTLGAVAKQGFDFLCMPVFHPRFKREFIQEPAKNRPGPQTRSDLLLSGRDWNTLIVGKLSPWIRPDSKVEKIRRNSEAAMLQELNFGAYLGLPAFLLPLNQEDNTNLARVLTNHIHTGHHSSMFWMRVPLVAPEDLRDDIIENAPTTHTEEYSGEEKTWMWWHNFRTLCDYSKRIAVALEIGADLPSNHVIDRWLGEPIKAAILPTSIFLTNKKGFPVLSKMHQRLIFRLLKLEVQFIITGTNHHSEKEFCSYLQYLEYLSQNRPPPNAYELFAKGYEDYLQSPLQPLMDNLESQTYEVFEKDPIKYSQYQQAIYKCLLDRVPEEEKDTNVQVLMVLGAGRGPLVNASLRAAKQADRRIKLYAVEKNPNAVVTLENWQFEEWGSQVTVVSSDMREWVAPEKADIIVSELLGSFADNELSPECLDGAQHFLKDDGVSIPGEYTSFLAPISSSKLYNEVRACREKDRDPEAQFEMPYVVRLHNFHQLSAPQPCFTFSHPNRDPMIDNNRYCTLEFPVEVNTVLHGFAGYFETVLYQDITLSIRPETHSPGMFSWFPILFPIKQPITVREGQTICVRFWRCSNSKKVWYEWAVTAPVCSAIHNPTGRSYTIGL
T1 sequence (Q9BQA1 with tags, fused parts or gaps partner): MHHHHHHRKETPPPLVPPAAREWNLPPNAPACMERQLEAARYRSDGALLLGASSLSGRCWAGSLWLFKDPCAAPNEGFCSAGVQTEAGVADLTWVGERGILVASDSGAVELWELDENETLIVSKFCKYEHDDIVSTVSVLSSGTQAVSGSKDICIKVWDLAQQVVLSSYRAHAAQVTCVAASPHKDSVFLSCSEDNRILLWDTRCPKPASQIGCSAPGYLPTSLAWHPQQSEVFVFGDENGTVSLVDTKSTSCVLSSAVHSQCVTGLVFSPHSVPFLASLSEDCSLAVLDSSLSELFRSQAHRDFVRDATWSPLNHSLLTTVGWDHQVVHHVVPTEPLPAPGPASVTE

Structure (SMILES) | IC50
Cn1ncc2ccc(-c3cc(NCC(O)CN4CCc5ccccc5C4)ncn3)cc21 (centres unmarked) [Compound 205] | 101 to 1000 nM
Cn1cnc2ccc(-c3cc(NCC(O)CN4CCc5ccccc5C4)ncn3)cc21 (centres unmarked) [Compound 207] | 101 to 1000 nM
Cn1cnc2ccc(-c3cccc(OCC(O)CN4CCc5ccccc5C4(C)C)c3)cc21 (centres unmarked) [Compound 211] | 1000 to 10000 nM
Cc1ccc2c(c1)CN(CC(O)COc1cccc(-c3ccc4ncn(C)c4c3)c1)CC2 (centres unmarked) [Compound 212] | 1000 to 10000 nM
Cc1cccc2c1CCN(CC(O)COc1cccc(-c3ccc4ncn(C)c4c3)c1)C2 (centres unmarked) [Compound 213] | 1000 to 10000 nM
Cn1cnc2ccc(-c3cccc(OCC(O)CN4CCc5ccc(Cl)cc5C4)c3)cc21 (centres unmarked) [Compound 214] | 1000 to 10000 nM
Cn1cnc2ccc(-c3cccc(OCC(O)CN4CCc5c(Cl)cccc5C4)c3)cc21 (centres unmarked) [Compound 215] | 1000 to 10000 nM
Cn1ncc2c1CN(c1cccc(OCC(O)CN3CCc4ccccc4C3)c1)CC2 (centres unmarked) [Compound 216, 1-(3,4-dihydroisoquinolin-2(1H)-yl)-3-(3-(1-methyl-4,5-dihydro-1H-pyrazolo[3,4-c]pyridin-6(7H)-yl)phenoxy)propan-2-ol] | 101 to 1000 nM
Cn1cnc2ccc(-c3cc(NCC(O)CN4CCc5ccccc5C4)ccn3)cc21 (centres unmarked) [Compound 217] | 101 to 1000 nM
Cn1cc2ccc(-c3cc(NCC(O)CN4CCc5ccccc5C4)ncn3)cc2n1 (centres unmarked) [Compound 224] | 101 to 1000 nM
Cn1ccc2ccc(-c3cc(NCC(O)CN4CCc5ccccc5C4)ncn3)cc21 (centres unmarked) [Compound 237] | 101 to 1000 nM
CC(=O)N1CCC(n2cnc3ccc(-c4ccnc(NCC(O)CN5CCc6ccccc6C5)c4)cc32)CC1 (centres unmarked) [Compound 242] | 101 to 1000 nM
O=C(Nc1ccccn1)c1cccc(OCC(O)CN2CCc3ccccc3C2)c1 (centres unmarked) [Compound 267] | 101 to 1000 nM
O=C(Nc1cccnc1)c1cccc(OCC(O)CN2CCc3ccccc3C2)c1 (centres unmarked) [Compound 268] | 1000 to 10000 nM
Cn1cnc2ccc(-c3cc(NCC(O)CN4CCc5ccccc5C4)n[nH]3)cc21 (centres unmarked) [Compound 271, 1-(3,4-dihydroisoquinolin-2(1H)-yl)-3-((5-(1-methyl-1H-benzo[d]imidazol-6-yl)-1H-pyrazol-3-yl)amino)propan-2-ol] | 101 to 1000 nM

Continued, values first:

IC50 | Structure (SMILES)
1000 to 10000 nM | CNC(=O)Cn1ccc2cnc(-c3cccc(OCC(O)CN4CCc5ccccc5C4)c3)nc21 (centres unmarked) [Compound 206]
101 to 1000 nM | O=C(Cn1ccc2cnc(-c3cccc(OCC(O)CN4CCc5ccccc5C4)c3)nc21)N1CCOCC1 (centres unmarked) [Compound 222]
101 to 1000 nM | CC(=O)N1CCC(n2cnc3ccc(-c4cccc(OCC(O)CN5CCc6ccccc6C5)c4)cc32)CC1 (centres unmarked) [Compound 228, 1-(4-(6-(3-(3-(3,4-dihydroisoquinolin-2(1H)-yl)-2-hydroxypropoxy)phenyl)-1H-benzo[d]imidazol-1-yl)piperidin-1-yl)ethanone]
101 to 1000 nM | O=C(Cn1ccc2cnc(-c3cccc(OCC(O)CN4CCc5ccccc5C4)c3)nc21)N1CCCC1 (centres unmarked) [Compound 231]
101 to 1000 nM | O=C(Cn1ccc2cnc(-c3cccc(OCC(O)CN4CCc5ccccc5C4)c3)nc21)N1CCCCC1 (centres unmarked) [Compound 232]
101 to 1000 nM | CC(=O)N1CCC(n2cnc3cnc(-c4cccc(OCC(O)CN5CCc6ccccc6C5)c4)nc32)CC1 (centres unmarked) [Compound 243]
101 to 1000 nM | CN1CCN(C(=O)Cn2ccc3cnc(-c4cccc(OCC(O)CN5CCc6ccccc6C5)c4)nc32)CC1 (centres unmarked) [Compound 244]
101 to 1000 nM | Cn1ncc2cnc(-c3cccc(OCC(O)CN4CCc5ccccc5C4)c3)cc21 (centres unmarked) [Compound 248, 1-(3,4-dihydroisoquinolin-2(1H)-yl)-3-(3-(1-methyl-1H-pyrazolo[4,3-c]pyridin-6-yl)phenoxy)propan-2-ol]
101 to 1000 nM | O=C(Cn1cnc2ccc(-c3cccc(OCC(O)CN4CCc5ccccc5C4)c3)cc21)N1CCCCC1 (centres unmarked) [Compound 249]
101 to 1000 nM | O=C(Cn1cnc2ccc(-c3cccc(OCC(O)CN4CCc5ccccc5C4)c3)cc21)N1CCCC1 (centres unmarked) [Compound 263]
101 to 1000 nM | CN1CCN(C(=O)Cn2cnc3ccc(-c4cccc(OCC(O)CN5CCc6ccccc6C5)c4)cc32)CC1 (centres unmarked) [Compound 270]
